# Assay results from patent publication US20260068884A1, “COMPOSITION USED FOR KILLING FUNGI AND METHOD FOR APPLYING COMPOSITION” (JIANGSU FLAG CHEMICAL INDUSTRY CO., LTD., priority 2022, published 2026).
# Read-outs that look alike come from different tables or passages of the source.
# Key:
# cucumber powdery mildew = assay: field efficacy test for cucumber powdery mildew; type: in vivo; conditions: spray
# Protocol: Field efficacy test for preventing and treating cucumber powdery mildew.
# The test object is cucumber powdery mildew. The test is carried out on Xiaoying village of Liuhe district of Nanjing city, Jiangsu Province, China, the field trend of the test is flat, the soil is loam, the fertility is medium, the pH value is 6.8, and the management of rich water during the test is medium. And setting blank contrast, repeating the treatment for 3 times, wherein each cell has 30 square meters and is arranged in random block groups. The water consumption per acre is 40 L by adopting a conventional spraying method, and the water is uniformly sprayed on the front and back surfaces of the leaves.
# The investigation and statistical method comprises the steps of investigating the base of illness state before application of the medicament, and investigating once again 10-14 days after the last application of the medicament, wherein 2 times of investigation are total. Four points are randomly taken from each cell, 2 plants are investigated from each point, all leaves are investigated from each plant, and each leaf is graded and recorded according to the percentage of lesion spots to the leaf area. The grading method comprises the following steps: • stage 0: no lesion spots; • stage 1: the lesion area accounts for less than 5% of the whole leaf area; • stage 3: the ratio of the lesion spot area to the whole leaf area is more than 6% to less than 10%; • stage 5: the ratio of the lesion spot area to the whole leaf area is more than 11% to less than 25%; • stage 7: the ratio of the lesion spot area to the whole leaf area is more than 26% to less than 50%; • stage 9: the ratio of the lesion spot area to the whole leaf area is more than 50%;
# When the fungicidal activity of the active compound combination exceeds the sum of the activities of the active compounds when applied individually, then there is always a synergistic effect of the fungicides. The expected activity of a given combination of two active compounds can be calculated (according to the Colby formula) as follows (refer to S. R. Colby, “Calculation of the synergistic andantagonistic responses of herbicide combinations”, Weeds 1967, 15, pages 20-22):
# [formula] • X is the efficacy of component A when applied at an application rate of m g a.i./ha, • Y is the efficacy of component B when applied at an application rate of n g a.i./ha, • Cexp is the expected efficacy when the active compound A is administered at an application rate of m g a.i./ha and the active compound B is administered at an application rate of n g a.i./ha, respectively, • the degree of efficacy is expressed as %: 0% means the efficacy corresponding to the control group, while 100% efficacy means no disease observed. • C-Cobs/Cexp, C>1 indicates synergy and antagonism if C<1.
# [1] = tested on: rape sclerotinia sclerotiorum; assay: plate method, inhibition of hypha growth (in-vessel bioassay); type: cell-based; conditions: for EC50: Sclerotinia sclerotiorum
# Blumeria graminis = assay: pot culture method, protective control of wheat powdery mildew; type: in vivo; conditions: for Measured Toxicity Index of Mixture (ATI): standard fungicide = component A; for EC50: Blumeria graminis, control efficacy, potted wheat, sprayed 24 h before inoculation, 7 days after inoculation
# [2] = tested on: wheat scab germ (Fusarium graminearum); assay: microbe, parasite or virus in culture; type: cell-based; conditions: for Measured Toxicity Index of Mixture (ATI): standard fungicide = component A
# [3] = tested on: wheat rust (Puccinia striiformis f. sp. tritici); assay: pot culture method, protective control of wheat rust; type: in vivo; conditions: for Measured Toxicity Index of Mixture (ATI): standard fungicide = component A; for EC50: Puccinia striiformis
# [4] = single component B, g a.i./ha: azoxystrobin 72, fludioxonil 50, pyraclostrobin 160, difenoconazole 100
# [5] = hypha growth inhibition, plate method, wheat fusarium graminearum
Compound,EC50 [1] [µg/mL],Measured Toxicity Index of Mixture (ATI) (Blumeria graminis),Measured Toxicity Index of Mixture (ATI) [2],Measured Toxicity Index of Mixture (ATI) [3],EC50 (Blumeria graminis) [µg/mL],EC50 ([2]; Fusarium graminearum) [µg/mL],EC50 [3] [µg/mL],also measured
CO/C=C(/C(=O)OC)c1ccccc1Oc1cc(Oc2ccccc2C#N)ncn1 [azoxystrobin],,,,,,,,Cobs Actual control Effect (cucumber powdery mildew; [4]): 50.28%
N#Cc1c(Cl)c(Cl)c(Cl)c(C#N)c1Cl [chlorothalonil],0.82,,,,,,,Measured Toxicity Index of Mixture (ATI) [1]: 1.22
CC(C1CC1)C(O)(Cn1cncn1)c1ccc(Cl)cc1 (stereo not drawn) [ciproconazole],,94.12,0.50,233.08,,,,"EC50 [2, 5]: 2 µg/mL"
C=C(CN(C(=O)c1c(C(F)F)nn(C)c1F)C1CC1)c1ccc(Cl)cc1Cl [component A],0.01,100.00,100.00,100.00,16,0.01,29,Cobs Actual control Effect (cucumber powdery mildew; 40 g a.i./ha): 37.60%; Cobs Actual control Effect (cucumber powdery mildew; 60 g a.i./ha): 46.88%; Cobs Actual control Effect (cucumber powdery mildew; 104 g a.i./ha): 54.68%; Cobs Actual control Effect (cucumber powdery mildew; 150 g a.i./ha): 67.74%; Measured Toxicity Index of Mixture (ATI) ([1]; standard fungicide = component A): 100
CC1COC(Cn2cncn2)(c2ccc(Oc3ccc(Cl)cc3)cc2Cl)O1 (stereo not drawn) [difenoconazole],,,,,,,,Cobs Actual control Effect (cucumber powdery mildew; [4]): 67.85%
N#Cc1c[nH]cc1-c1cccc2c1OC(F)(F)O2 [fludioxonil],0.015,,,,,,,Cobs Actual control Effect (cucumber powdery mildew; [4]): 47.70%; Measured Toxicity Index of Mixture (ATI) [1]: 66.67
CC1(C)CCC(Cc2ccc(Cl)cc2)C1(O)Cn1cncn1 (stereo not drawn) [metconazole],,,33.33,,,0.03,,
CCOC(=O)C(C#N)=C(N)c1ccccc1 [phenamacril],,,2.50,,,,,"EC50 [2, 5]: 0.4 µg/mL"
CCCN(CCOc1c(Cl)cc(Cl)cc1Cl)C(=O)n1ccnc1 [prochloraz],0.08,,50.00,,,0.02,,Measured Toxicity Index of Mixture (ATI) [1]: 12.5
CCCC1COC(Cn2cncn2)(c2ccc(Cl)cc2Cl)O1 (stereo not drawn) [propiconazole],,145.45,,193.33,11,,15,
OC(Cc1ccccc1Cl)(Cn1nc[nH]c1=S)C1(Cl)CC1 (stereo not drawn) [prothioconazole],,114.29,0.25,322.22,14,4,9,
COC(=O)N(OC)c1ccccc1COc1ccn(-c2ccc(Cl)cc2)n1 [pyraclostrobin],,133.33,0.50,241.67,12,2,12,Cobs Actual control Effect (cucumber powdery mildew; [4]): 72.87%
CC(C)(C)C(O)(CCc1ccc(Cl)cc1)Cn1cncn1 (stereo not drawn) [tebuconazole],0.1,123.08,16.67,181.25,13,0.06,16,Measured Toxicity Index of Mixture (ATI) [1]: 10.00
OCC1=C[C@H](N[C@H]2C[C@H](CO)[C@@H](O[C@@H]3O[C@H](CO)[C@@H](O)[C@H](O)[C@H]3O)[C@H](O)[C@H]2O)[C@H](O)[C@@H](O)[C@@H]1O [validamycin],,,0.08,,,13,,
fluazolidinamide,,80.00,,116.00,,,,
